From patent US20090105283A1, “3-HYDROQUINAZOLIN-4-ONE DERIVATIVES FOR USE AS STEAROYL CoA DESATURASE INHIBITORS” (priority 2007, published 2009)
pIC50: −log10 of the molar value.

These molecules were tested against T1, stearoyl-CoA desaturase (SCD) (Rattus norvegicus, UniProt P07308) (assay: SCD assay with rat liver microsomes ([3H]stearoyl CoA, adapted from Talamo and Bloch)). Settings: Table 1; rat liver microsomes 0.2 mg/ml assay final, [3H]stearoyl CoA substrate, 30 min preincubation, 45 min reaction, room temperature.
T1 construct: The microsomes were quickly thawed and added to assay buffer so that a concentration of 0.4 mg/ml was achieved; from tissue
T1 sequence (P07308 1-358): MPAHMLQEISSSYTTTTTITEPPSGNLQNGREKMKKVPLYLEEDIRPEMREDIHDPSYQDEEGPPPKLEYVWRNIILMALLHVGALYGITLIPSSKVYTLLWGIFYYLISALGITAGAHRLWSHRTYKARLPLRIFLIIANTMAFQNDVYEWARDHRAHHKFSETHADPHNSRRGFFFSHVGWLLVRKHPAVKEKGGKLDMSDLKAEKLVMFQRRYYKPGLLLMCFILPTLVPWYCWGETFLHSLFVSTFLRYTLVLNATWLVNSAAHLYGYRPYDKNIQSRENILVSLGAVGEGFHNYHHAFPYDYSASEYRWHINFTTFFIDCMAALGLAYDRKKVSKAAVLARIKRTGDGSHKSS
Format: biochemical
Source text: Male Spraque Dawley Rats were placed on regimented fasting protocol for one week to stimulate SCD enzymatic activity. 48-hour periods were alternated between feeding and fasting to induce and down-regulate SCD activity with SCD activity being induced via carbohydrate rich diet prior to liver perfusion and collection.
The rats were anesthetized with Isoflurane inhalation anesthetic, the liver perfused with cold phosphate buffered saline (PBS), weighed, and chilled in cold homogenization buffer (250 mM sucrose, 10 mM Tris, 1 mM EDTA, pH 7.6.
The livers were finely minced and placed in homogenization tube. 40 mL of homogenization buffer was added to the homogenization tube and the liver homogenized and centrifuged in a pre-chilled […] for 10 min at 4° C.
Following centrifugation, the supernatant was collected and the pellet removed and discarded. The supernatant was centrifuge at 10,000 G for 35 minutes. Following centrifugation, the supernatant was collect and the pellet discarded. The supernatant was then centrifuged in a pre-chilled 45-Ti rotor at 130,000 G (41,000 RPM) for 90 minutes at 4° C.
The supernatant was then aspirated off and the collected microsomal pellet washed in 25 mL of Glycerol PBS (1×PBS 7.4, 20% Glycerol) and resuspended in 4-5 volumes of Glycerol PBS.
The protein concentration of the microsomal preparation was determined by BCA assay (Pierce) and the microsomes were aliquoted and stored at −80° C.
Biobeads were ground to a smaller size in a mortar and pestle and resuspended in 3.6% TCA. The beads were then filtered through […] mesh.
SCD was determined in the desaturase assay buffer. This assay buffer contained 0.1 M Tris buffer, pH 7.2, 2 mM NADH, 4.8 mM ATP, 0.5 mM CoA, 4.8 mM MgCl2, and 0.1% BSA.
1 μl of each compound of Formula I was added to an assay plate by a low volume (0.5-10 μL) multichannel pipette. A DMSO control was also prepared. The microsomes were quickly thawed and added to assay buffer so that a concentration of 0.4 mg/ml was achieved (0.2 mg/ml assay final). 50 μl of the microsome suspension in assay buffer was then added into each well in the compound assay plate, the plate was covered, and the microsomes preincubated with the compounds for 30 minutes on the orbital shaker, 50-75 rpm, at room temperature.
The reaction mixtures were then incubated for 45 minutes on the orbital shaker at 50-75 rpm at room temperature.
The reaction was terminated by the addition of 10 μl of 21% trichloroacetic acid (TCA) to the reaction mixture followed incubation on the orbital shaker for 30 minutes at 50-75 rpm at room temperature followed by centrifugation for 5 minutes at 3700 rpm.
50 μl of a 6% Bio-Bead suspension in H2O was added to the reaction mixture and the assay plate was sealed. The Bio-Bead mixture was incubated on the orbital shaker for 1 hour, 100-150 rpm at room temperature, and then the mixture was centrifuged at 2000 g for 5 minutes to pellet the Bio-Beads.
25 μl of the supernatant was harvested from each well and transferred to a detection plate. 100 μl of OptiPhase SuperMix scinitillation cocktail (containing sufficient NaOH to neutralize the TCA) was added and the solutions mixed by vigorous shaking (300-400 rpm) for 5 minutes at room temperature.
Work on COc1ccc(Cn2cnc3ccc(NC(=O)COC(C)=O)cc3c2=O)cc1 [C, (N-{3-[(4-methoxyphenyl)methyl]-4-oxo-3-hydroquinazolin-6-yl}carbamoyl)methyl acetate] yielded a pIC50 of 5.46.
In the case of COc1ccc(Cn2cnc3ccc(NC(=O)CO)cc3c2=O)cc1 [CI, 2-hydroxy-N-{3-[(4-methoxyphenyl)methyl]-4-oxo(3-hydroquinazolin-6-yl)}acetamide], the pIC50 was 5.09.
In the case of CC(=O)OCC(=O)Nc1ccc2c(=O)n(Cc3ccc(F)c(F)c3)cnc2c1 [CII, (N-{3-[(3,4-difluorophenyl)methyl]-4-oxo-3-hydroquinazolin-7-yl}carbamoyl)methyl acetate], the pIC50 was 5.12.
For O=C(CO)Nc1ccc2c(=O)n(Cc3ccc(F)c(F)c3)cnc2c1 [CIII, N-{3-[(3,4-difluorophenyl)methyl]-4-oxo(3-hydroquinazolin-7-yl)}-2-hydroxyacetamide], the pIC50 was 5.36.
With O=C(Nc1ccc2ncn(Cc3ccc(Cl)c(Cl)c3)c(=O)c2c1)OCc1ccccc1 [I, N-{3-[(3,4-dichlorophenyl)methyl]-4-oxo(3-hydroquinazolin-6-yl)}(phenylmethoxy)carboxamide] the pIC50 was 6.80.
O=C(CCc1ccccc1)Nc1ccc2ncn(Cc3ccc(Cl)c(Cl)c3)c(=O)c2c1 [II, N-{3-[(3,4-dichlorophenyl)methyl]-4-oxo(3-hydroquinazolin-6-yl)}-3-phenylpropanamide] gave a pIC50 of 5.62.
CCCCCC(=O)Nc1ccc2ncn(Cc3ccc(Cl)c(Cl)c3)c(=O)c2c1 [III, N-{3-[(3,4-dichlorophenyl)methyl]-4-oxo-3-hydroquinazolin-6-yl}hexanamide] gave a pIC50 of 5.27.
With CCCCCNC(=O)Nc1ccc2ncn(Cc3ccc(Cl)c(Cl)c3)c(=O)c2c1 [IV, N-{3-[(3,4-dichlorophenyl)methyl]-4-oxo(3-hydroquinazolin-6-yl)}(pentylamino)carboxamide] the pIC50 was 5.44.
Molecule CC(C)OC(=O)Nc1ccc2ncn(Cc3ccc(Cl)c(Cl)c3)c(=O)c2c1 [IX, N-{3-[(3,4-dichlorophenyl)methyl]-4-oxo(3-hydroquinazolin-6-yl)}(methylethoxy)carboxamide] has a pIC50 of 4.85.
In the case of COc1ccccc1OCC(=O)Nc1ccc2c(=O)n(Cc3ccc(Cl)c(Cl)c3)cnc2c1 [L, N-{3-[(3,4-dichlorophenyl)methyl]-4-oxo(3-hydroquinazolin-7-yl)}-2-(2-methoxyphenoxy)acetamide], the pIC50 was 5.84.
Molecule O=C(COc1cccnc1)Nc1ccc2c(=O)n(Cc3ccc(Cl)c(Cl)c3)cnc2c1 [LI, N-{3-[(3,4-dichlorophenyl)methyl]-4-oxo(3-hydroquinazolin-7-yl)}-2-(3-pyridyloxy)acetamide] has a pIC50 of 5.84.
O=C(Nc1ccc2c(=O)n(Cc3ccc(Cl)c(Cl)c3)cnc2c1)OCc1ccccc1 [LII, N-{3-[(3,4-dichlorophenyl)methyl]-4-oxo(3-hydroquinazolin-7-yl)}(phenylmethoxy)carboxamide] showed a pIC50 of 7.30.
In the case of O=C(COc1ccccc1)Nc1ccc2c(=O)n(Cc3ccc(Cl)c(Cl)c3)cnc2c1 [LIII, N-{3-[(3,4-dichlorophenyl)methyl]-4-oxo(3-hydroquinazolin-7-yl)}-2-phenoxyacetamide], the pIC50 was 5.77.
O=C(CSc1ccncc1)Nc1ccc2ncn(Cc3ccc(Cl)c(Cl)c3)c(=O)c2c1 [LIV, N-{3-[(3,4-dichlorophenyl)methyl]-4-oxo(3-hydroquinazolin-6-yl)}-2-(4-pyridylthio)acetamide] showed a pIC50 of 5.59.
O=C(Nc1ccc2c(=O)n(Cc3cccc(Cl)c3)cnc2c1)OCc1cccnc1 [LIX, N-{3-[(3-chlorophenyl)methyl]-4-oxo(3-hydroquinazolin-7-yl)}(3-pyridylmethoxy)carboxamide] showed a pIC50 of 6.55.
Molecule O=C(CSc1ncccn1)Nc1ccc2ncn(Cc3ccc(Cl)c(Cl)c3)c(=O)c2c1 [LV, N-{3-[(3,4-dichlorophenyl)methyl]-4-oxo(3-hydroquinazolin-6-yl)}-2-pyrimidin-2-ylthioacetamide] has a pIC50 of 5.27.
O=C(CSc1ccc(Cl)cc1)Nc1ccc2ncn(Cc3ccc(Cl)c(Cl)c3)c(=O)c2c1 [LVI, N-{3-[(3,4-dichlorophenyl)methyl]-4-oxo(3-hydroquinazolin-6-yl)}-2-(4-chlorophenylthio)acetamide] showed a pIC50 of 5.55.
O=C(Nc1ccc2ncn(Cc3ccc(Cl)cc3)c(=O)c2c1)c1ccc(Cn2ccnc2)o1 [LVII, N-{3-[(4-chlorophenyl)methyl]-4-oxo(3-hydroquinazolin-6-yl)}[5-(imidazolylmethyl)(2-furyl)]carboxamide] showed a pIC50 of 4.92.
In the case of O=C(Nc1ccc2c(=O)n(Cc3cccc(Cl)c3)cnc2c1)OCc1ccccc1 [LVIII, N-{3-[(3-chlorophenyl)methyl]-4-oxo(3-hydroquinazolin-7-yl)}(phenylmethoxy)carboxamide], the pIC50 was 6.60.
With O=C(CSCc1ccccc1)Nc1ccc2ncn(Cc3ccc(Cl)c(Cl)c3)c(=O)c2c1 [LX, N-{3-[(3,4-dichlorophenyl)methyl]-4-oxo(3-hydroquinazolin-6-yl)}-2-(phenylmethylthio)acetamide] the pIC50 was 5.18.
For COc1ccccc1COC(=O)Nc1ccc2c(=O)n(Cc3ccc(Cl)c(Cl)c3)cnc2c1 [LXI, N-{3-[(3,4-dichlorophenyl)methyl]-4-oxo(3-hydroquinazolin-7-yl)}[(2-methoxyphenyl)methoxy]carboxamide], the pIC50 was 6.15.
Molecule O=C(CO)Nc1ccc2ncn(Cc3ccc(Cl)c(Cl)c3)c(=O)c2c1 [LXII, N-{3-[(3,4-dichlorophenyl)methyl]-4-oxo(3-hydroquinazolin-6-yl)}-2-hydroxyacetamide] has a pIC50 of 6.64.
Molecule O=C(Nc1ccc2ncn(Cc3ccc(Cl)c(Cl)c3)c(=O)c2c1)OCc1ccco1 [LXIII, N-{3-[(3,4-dichlorophenyl)methyl]-4-oxo(3-hydroquinazolin-6-yl)}(2-furylmethoxy)carboxamide] has a pIC50 of 6.36.
In the case of CC(=O)OCC(=O)Nc1ccc2c(=O)n(Cc3ccc(Cl)c(Cl)c3)cnc2c1 [LXIV, (N-{3-[(3,4-dichlorophenyl)methyl]-4-oxo-3-hydroquinazolin-7-yl}carbamoyl)methyl acetate], the pIC50 was 6.74.
With O=C(Nc1ccc2c(=O)n(Cc3cccc(F)c3)cnc2c1)OCc1ccccc1 [LXIX, N-{3-[(3-fluorophenyl)methyl]-4-oxo(3-hydroquinazolin-7-yl)}(phenylmethoxy)carboxamide] the pIC50 was 6.08.
For CC(=O)OCC(=O)Nc1ccc2c(=O)n(Cc3cccc(Cl)c3)cnc2c1 [LXV, (N-{3-[(3-chlorophenyl)methyl]-4-oxo-3-hydroquinazolin-7-yl}carbamoyl)methyl acetate], the pIC50 was 4.57.
CC(=O)OCC(=O)Nc1ccc2c(=O)n(Cc3ccc(Cl)cc3)cnc2c1 [LXVI, (N-{3-[(4-chlorophenyl)methyl]-4-oxo-3-hydroquinazolin-7-yl}carbamoyl)methyl acetate] gave a pIC50 of 4.79.
For COCCOC(=O)Nc1ccc2c(=O)n(Cc3ccc(Cl)c(Cl)c3)cnc2c1 [LXVII, N-{3-[(3,4-dichlorophenyl)methyl]-4-oxo(3-hydroquinazolin-7-yl)}(2-methoxyethoxy)carboxamide], the pIC50 was 6.06.
In the case of O=C(CO)Nc1ccc2c(=O)n(Cc3cccc(Cl)c3)cnc2c1 [LXVIII, N-{3-[(3-chlorophenyl)methyl]-4-oxo(3-hydroquinazolin-7-yl)}-2-hydroxyacetamide], the pIC50 was 5.57.
In the case of O=C(Nc1ccc2ncn(Cc3ccc(Cl)c(Cl)c3)c(=O)c2c1)Oc1ccc(Cl)cc1 [LXX, N-{3-[(3,4-dichlorophenyl)methyl]-4-oxo(3-hydroquinazolin-6-yl)}(4-chlorophenoxy)carboxamide], the pIC50 was 5.49.
